Test results reported in US6346620B1, “Methods for preparation of 2-(4-(4-(4,5-dichloro-2-methylimidazol-1-yl)butyl)-1-piperazinyl)-5-fluoropyrimidine and salts thereof” (Laboratories del Dr. Esteve S.A., priority 1997, dated 2002).

Legend:
[1] = tested on: nausea induced by copper sulfate; test: Antiemetic activity: nausea/vomiting induced by copper sulfate in ferrets; assay type: in vivo; conditions: ferret; for Number of episodes of nausea/vomiting: copper sulfate 100 mg/kg intragastric, 30 min observation
Procedure: (§1) The compounds obtained in the invention are studied with regard to their effects on nausea in ferrets according to a method described by Costall et al. (Neuropharmacology, 1986, 25, 959-961). Ferrets of both sexes (0.7-1.4 kg) are individually housed at 21±1° C. and fed normally. The compound of the example or a vehicle is subsequently administered to them subcutaneously as pretreatment 15 minutes before the administration of copper sulfate (CuSO4.5H2O; 100 mg/kg by the intragastric route) or cisplatin (10 mg/kg i.v. by means of a permanent jugular cannula). The animals are observed at the beginning of vomiting and then for 30 minutes (copper sulfate) or 240 minutes (cisplatin). Vomiting is characterized by rhythmic abdominal contractions, either associated with the expulsion of solid or liquid matter (vomit) or not associated with the passage of matter via the mouth (nausea). The number of episodes and nausea or vomiting are recorded.

[2] = tested on: nausea induced by cisplatin; test: Antiemetic activity: nausea/vomiting induced by cisplatin in ferrets; assay type: in vivo; conditions: ferret; for Number of episodes of nausea/vomiting: cisplatin 10 mg/kg i.v., 240 min observation
Procedure: as §1

[3] = tested on: nausea caused by the movement (travel sickness); test: Travel sickness in the shrew (Suncus murinus); assay type: in vivo; conditions: for Number of episodes of nausea/vomiting: motion 1 hertz 4 cm for 20 min
Excerpt: The compound of Example 3 is studied with regard to its effect on travel sickness, (vertigo) induced in, Suncus murinus according to the method described by N. Matsuki et al. (“Mechanisms and Control of Emesis”, John Libbey Emotex, 1992, 233, 323-329). Males of the species Suncus murinus weighing 58-72 grams are housed in groups of 3 and are allowed free access to solid food and to water. One hour before the test, they are presented with cat food in their housing cage. At the beginning of the test, the animals receive the treatment with the test product by the i.p. route. After 30 minutes, they are placed individually in the test boxes (15×15×10 cm). The boxes are connected to a motor which displaces them over several wheels forward and backward with a frequency which induces nausea in them (travel sickness). This frequency is 1 hertz with an amplitude of displacement of 4 cm. The animals are left in the test boxes for 30 minutes, in order for them to become used to their surroundings, and then the active movement of the cages is begun for 20 minutes, in order to determine the presence or the absence of nausea (without passage of matter from the digestive tract) and of vomiting (with passage of matter from the digestive tract).

5HT1A serotonin receptor = molecular target: T1, 5HT1A serotonin receptor (Rattus norvegicus, UniProt P19327); test: Binding to the 5HT1A serotonin receptor (rat hippocampus homogenate, [3H]-8-HO-DPAT); conditions: 15 minutes at 37° C., read-out: Ki (inhibition constant)
T1 construct: A rat hippocampus homogenate is used; from tissue; host or cells: rat hippocampus homogenate
T1 sequence (P19327 1-422): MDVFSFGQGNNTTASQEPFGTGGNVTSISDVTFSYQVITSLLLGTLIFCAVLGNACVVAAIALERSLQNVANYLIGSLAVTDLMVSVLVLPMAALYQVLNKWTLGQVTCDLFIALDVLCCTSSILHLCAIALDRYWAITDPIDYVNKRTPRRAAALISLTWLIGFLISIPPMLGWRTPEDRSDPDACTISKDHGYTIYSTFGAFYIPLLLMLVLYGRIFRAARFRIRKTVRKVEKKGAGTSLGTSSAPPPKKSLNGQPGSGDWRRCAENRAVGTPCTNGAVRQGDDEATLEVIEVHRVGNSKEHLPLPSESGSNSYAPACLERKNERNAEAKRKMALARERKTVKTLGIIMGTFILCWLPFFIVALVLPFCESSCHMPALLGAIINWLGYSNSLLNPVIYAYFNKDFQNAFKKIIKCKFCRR
Procedure: A rat hippocampus homogenate is used, a modification of the method of S. J. Peroutka (Neurochem., 1986, 47, 529) being followed. [^3H]-8-HO-DPAT is used as radioligand and serotonin is used to measure the nonspecific binding. The incubation time is 15 minutes at a temperature of 37° C. The radioligand bonded to the protein is separated by filtration through glass fiber filters and the radioactivity retained on the filter is determined by liquid scintillation. The inhibitIon constant (Ki, nM) is calculated by nonlinear regression analysis using the EBDA/LIGAND program (Munson and Rodbard, Analytical Biochemistry, 1980, 107, 220).

[4] = tested on: conditioned avoidance response; test: Test of conditioned avoidance response (C.A.R.); assay type: in vivo; conditions: Rattus norvegicus, po; male Wistar rats, p.o., 45 minutes before the study; read-out: ED50 (suppression of conditioned avoidance response)
Procedure: In this test, use is made of male Wistar rats weighing 200 g trained to leap a barrier in a Letica shuttle box (references LI 910 and LI 2700) during the 30 seconds which follow their introduction into the box. Products having an anxiolytic or tranquilizing activity suppress the conditioned avoidance response. Training: first day, 11 tests at intervals of 3 minutes. Electric shock in the paws at 30 seconds (5 mA, 0.1 s, 10 s). Second and third days: two daily tests, only with the selected rats {some of the grades of the first day (except the first test) >14}. Day of the test: groups formed by the selected rats. Oral administration of the product or vehicle 45 minutes before the beginning of the study.

gastric acid secretion = test: Inhibitory activity with regard to gastric acid secretion (Shay procedure); assay type: in vivo; conditions: Rattus norvegicus, intraduodenal; male Wistar rats, pylorus ligation, i.d., 2 hours; read-out: ED50 (inhibition of gastric acid secretion)
Procedure: This activity is determined by means of the Shay procedure (H. Shay et al., Gastroenterology, 1945, 5, 43; Visscher et al., J. Pharmac. Exp. Ther., 1954, 110, 188).
Male Wistar rats weighing from 200 to 250 g are used in this test, which rats are deprived of food up to the day preceding the test, with free access to water. Batches of 4 animals each are used, at least.
The rats are anesthetized with ethyl ether, a laparotomy is performed on them and their pylori are tied, and then an abdominal incision is made. The products are administered intraduodenally (i.d.) before suturing the abdominal incision. The dose administered in the first test is 40 mg/kg and then the median effective dose (ED50) is determined. The vehicle used is gum arabic at 5% w/v in doubly-distilled water.
Two hours after ligating the pylori, the rats are sacrificed by prolonged anesthesia with ethyl ether and the volume of gastric juice is measured. The total acidity is determined by means of a pH meter equipped with an automatic burette. For each product and for each dose tested, the percentage of inhibition of gastric acid secretion is determined with respect to a reference batch.

Ki (5HT1A serotonin receptor): 19.4 nM
Compound: Cc1nc(Cl)c(Cl)n1CCCCN1CCN(c2ncc(F)cn2)CC1.O=C(O)CC(O)(CC(=O)O)C(=O)O [Example 3, 2-{4-[4-(4,5-dichloro-2-methylimidazol-1-yl)butyl]piperazin-1-yl}-5-fluoropyrimidine citrate]
Number of episodes of nausea/vomiting ([1]; 0.001 mg/kg s.c.): 7.4 ± 1.2 (NS)
Number of episodes of nausea/vomiting ([1]; 0.01 mg/kg s.c.): 3.2 ± 0.6 (*)
Number of episodes of nausea/vomiting ([1]; 0.1 mg/kg s.c.): 1.0 ± 0.2 (*)
Number of episodes of nausea/vomiting ([1]; 1 mg/kg s.c.): 1.7 ± 0.3 (*)
Effect on nausea induced by copper sulfate (in words) ([1]; s.c.): capable of altering the nausea induced by copper sulfate
Number of episodes of nausea/vomiting ([2]; 0.001 mg/kg s.c.): 13.8 ± 2.4 (NS)
Number of episodes of nausea/vomiting ([2]; 0.01 mg/kg s.c.): 6.5 ± 3.1 (*)
Number of episodes of nausea/vomiting ([2]; 0.1 mg/kg s.c.): 3.1 ± 2.9 (*)
Number of episodes of nausea/vomiting ([2]; 1 mg/kg s.c.): 3.0 ± 2.0 (*)
Effect on nausea induced by cisplatin (in words) ([2]; s.c.): opposing the nausea induced by cisplatin
Effect on nausea caused by the movement (travel sickness) (in words) ([3]; doses of 0.01 to 10 mg/kg i.p.): markedly inhibits the nausea caused by the movement (travel sickness)
Number of episodes of nausea/vomiting ([3]; 0.001 mg/kg i.p.): 8.38 ± 1.41 (NS)
Number of episodes of nausea/vomiting ([3]; 0.01 mg/kg i.p.): 0.33 ± 0.21 (*)
Number of episodes of nausea/vomiting ([3]; 0.1 mg/kg i.p.): 2.17 ± 0.83 (*)
Number of episodes of nausea/vomiting ([3]; 1.0 mg/kg i.p.): 0.33 ± 0.21 (*)
Number of episodes of nausea/vomiting ([3]; 10.0 mg/kg i.p.): 0 ± 0 (*)
ED50 [4]: 9.7 mg/kg
ED50 (gastric acid secretion): 1.9 mg/kg
